Legend:
Assay in all cases: relative viability (nuclei count vs DMSO), 5 days (fraction); higher = more cells survive
NCI-H1666 = system: NCI-H1666
Summary of the method: (§1)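 Relative viability was taken as the ratio of nuclei in treated wells to nuclei in vehicle wells. Lung cancer cell lines in 1536-well plates received compounds by pin tool one day after seeding, either one drug alone or a fixed anchor-drug dose plus five library-drug doses (not always all listed) in √10 steps. Nuclei were counted on 4× images after 5 days of treatment, and values are medians of duplicate plates.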

NCI-H1975 = system: NCI-H1975
Summary of the method: as §1

NCI-H2085 = system: NCI-H2085
Summary of the method: as §1

NCI-H2126 = system: NCI-H2126
Summary of the method: as §1

NCI-H23 = system: NCI-H23
Summary of the method: as §1

NCI-H2405 = system: NCI-H2405
Summary of the method: as §1

NCI-H3122 = system: NCI-H3122
Summary of the method: as §1

NCI-H322M = system: NCI-H322M
Summary of the method: as §1

RERF-LC-KJ = system: RERF-LC-KJ
Summary of the method: as §1

SK-LU-1 = system: SK-LU-1
Summary of the method: as §1

SW 1573 = system: SW 1573
Summary of the method: as §1

NC(=O)Nc1cc(-c2cccc(F)c2)sc1C(=O)N[C@H]1CCCNC1 [AZD7762] + CS(=O)(=O)N1CCN(Cc2cc3nc(-c4cccc5[nH]ncc45)nc(N4CCOCC4)c3s2)CC1 [Pictilisib] (partner 1 µM)
relative viability (NCI-H1666; first compound 0.01 µM): 0.603 | relative viability (NCI-H1666; first compound 0.03162 µM): 0.407 | relative viability (NCI-H1666; first compound 0.1 µM): 0.55 | relative viability (NCI-H1666; first compound 0.3162 µM): 0.589 | relative viability (NCI-H1666; first compound 1 µM): 0.411 | relative viability (NCI-H1975; first compound 0.01 µM): 0.334 | relative viability (NCI-H1975; first compound 0.03162 µM): 0.304 | relative viability (NCI-H1975; first compound 0.1 µM): 0.288 | relative viability (NCI-H1975; first compound 0.3162 µM): 0.235 | relative viability (NCI-H1975; first compound 1 µM): 0.194 | relative viability (NCI-H2085; first compound 0.01 µM): 0.407 | relative viability (NCI-H2085; first compound 0.03162 µM): 0.507 | relative viability (NCI-H2085; first compound 0.1 µM): 0.486 | relative viability (NCI-H2085; first compound 0.3162 µM): 0.516 | relative viability (NCI-H2085; first compound 1 µM): 0.361 | relative viability (NCI-H2126; first compound 0.01 µM): 0.491 | relative viability (NCI-H2126; first compound 0.03162 µM): 0.482 | relative viability (NCI-H2126; first compound 0.1 µM): 0.552 | relative viability (NCI-H2126; first compound 0.3162 µM): 0.518 | relative viability (NCI-H2126; first compound 1 µM): 0.612 | relative viability (NCI-H23; first compound 0.01 µM): 0.56 | relative viability (NCI-H23; first compound 0.03162 µM): 0.533 | relative viability (NCI-H23; first compound 0.1 µM): 0.446 | relative viability (NCI-H23; first compound 0.3162 µM): 0.358 | relative viability (NCI-H23; first compound 1 µM): 0.228 | relative viability (NCI-H2405; first compound 0.01 µM): 0.457 | relative viability (NCI-H2405; first compound 0.03162 µM): 0.559 | relative viability (NCI-H2405; first compound 0.1 µM): 0.382 | relative viability (NCI-H2405; first compound 0.3162 µM): 0.291 | relative viability (NCI-H2405; first compound 1 µM): 0.22 | relative viability (NCI-H3122; first compound 0.01 µM): 0.623 | relative viability (NCI-H3122; first compound 0.03162 µM): 0.646 | relative viability (NCI-H3122; first compound 0.1 µM): 0.638 | relative viability (NCI-H3122; first compound 0.3162 µM): 0.333 | relative viability (NCI-H3122; first compound 1 µM): 0.332 | relative viability (NCI-H322M; first compound 0.01 µM): 0.484 | relative viability (NCI-H322M; first compound 0.03162 µM): 0.552 | relative viability (NCI-H322M; first compound 0.1 µM): 0.502 | relative viability (NCI-H322M; first compound 0.3162 µM): 0.5 | relative viability (NCI-H322M; first compound 1 µM): 0.426 | relative viability (RERF-LC-KJ; first compound 0.01 µM): 0.521 | relative viability (RERF-LC-KJ; first compound 0.03162 µM): 0.616 | relative viability (RERF-LC-KJ; first compound 0.1 µM): 0.521 | relative viability (RERF-LC-KJ; first compound 0.3162 µM): 0.6 | relative viability (RERF-LC-KJ; first compound 1 µM): 0.431 | relative viability (SK-LU-1; first compound 0.01 µM): 0.694 | relative viability (SK-LU-1; first compound 0.03162 µM): 0.644 | relative viability (SK-LU-1; first compound 0.1 µM): 0.337 | relative viability (SK-LU-1; first compound 0.3162 µM): 0.176 | relative viability (SK-LU-1; first compound 1 µM): 0.2 | relative viability (SW 1573; first compound 0.01 µM): 0.569 | relative viability (SW 1573; first compound 0.03162 µM): 0.479 | relative viability (SW 1573; first compound 0.1 µM): 0.554 | relative viability (SW 1573; first compound 0.3162 µM): 0.54 | relative viability (SW 1573; first compound 1 µM): 0.451
